# Source: article PMC6514909, “Synthesis of New Derivatives of Benzofuran as Potential Anticancer Agents” (Molecules, 2019)
# How the values were obtained:
# [1] = tested on: caspase 3/7 in K562 cells; assay: Apo-ONE Homogeneous Caspase-3/7 Assay in K562 cells; assay type: cell-based, human; conditions: compound at 5 × IC50 (staurosporine 1 µM), 18 h, 1% DMSO normalized to 1.0
# Protocol: We have measured the activity of caspases 3 and 7 (caspase 3/7), which are markers of programmed cell death. […] The activity of caspase 3/7 was measured using pro-fluorescent peptide substrate.
# 20 × 10^3 K562 cells were seeded on each well of 96-well plate in RPMI 1640 medium supplemented with 10% fetal calf serum and antibiotics. Cells were grown for 24 h at 37 °C and 5% CO2. The test compounds were dissolved in DMSO and added to the cell culture. The concentration of tested benzo[b]furans in cell culture was 5 × IC50.
# Cells treated with 1% DMSO served as a negative control, while cells incubated with staurosporine (a strong inducer of apoptosis) were used as a positive control. Cells were exposed to test compounds for 18 h at 37 °C and 5% CO2. Subsequently, Apo-ONE® Homogeneous Caspase-3/7 Assay (Promega, Madison, WI, USA) measured the activity of caspase 3 and 7, according to the manufacturer’s instructions. Briefly, the cells were lysed and incubated for 1.5 h with profluorescent substrate for caspase 3 and 7. Next, fluorescence was read at an excitation wavelength of 485 nm and emission of 520 nm with FLUOStar Omega plate reader (BMG-Labtech, Ortenberg, Germany).
# Figure 5 Activity of caspase 3 and 7 in K562 cells treated with the test benzofurans 1c, 1e, 2d, 3d, or staurosporine for 18 h. Apoptosis was determined by Apo-ONE® Homogeneous Caspase-3/7 Assay (Promega, Madison, WI, USA). Abbreviations: DMSO—K562 cells treated with 1% DMSO. The caspase activation level in cells exposed to 1% DMSO was normalized to 1.0. Mean values +/− SD are shown.
# [2] = tested on: HeLa (human cervix carcinoma) cells; assay: MTT cytotoxicity assay, HeLa; assay type: cell-based
# Protocol: (§1) Fourteen new benzofuran derivatives were tested for their cytotoxic properties in K562, MOLT-4 (leukemia, suspension cells), HeLa (cervix carcinoma, adherent cells), and normal endothelial cells (HUVEC). First, we measured the viability of cells after 48 h incubation with the given compound at the concentration of 100 μM. Next, for compounds that reduced cancer cells survival for more than 50%, we determined IC50 values. Cells that were exposed to 1% DMSO (a vehicle) served as the control with 100% survival. Cells treated with 1 µM staurosporine served as the internal control of the cytotoxicity experiments.
# (§2) Human umbilical vein endothelial cells (Life Technologies, Waltham, MA, USA) were cultured (according to the manufacturer instructions) in Medium 200 supplemented with Low Serum Growth Supplement. 1 × 10^4 HUVEC cells were seeded on each well on a 96-well plate (Nunc). The HeLa (human cervix carcinoma) K562 and MOLT-4 (leukemia) cells were cultured in RPMI 1640 medium supplemented with antibiotics and 10% fetal calf serum (HeLa, K562) in a 5% CO2-95% air atmosphere. 7 × 10^3 HeLa, K562, or MOLT-4 cells were seeded on each well on 96-well plate (Nunc). 24 h later cells were treated with the test compounds and then incubated for an additional 48 hours. Stock solutions of test compounds were freshly prepared in DMSO (dimethylsulfoxide). The final concentrations of compounds that were tested in the cell cultures were: 2 × 10^−1, 1 ×10^−1, 5 × 10^−2, 1 × 10^−2, 1 × 10^−3 and 1 × 10^−4 mM. The concentration of DMSO in the cell culture medium was 1%.
# (§3) The values of IC50 (the concentration of test compound that is required to reduce the cell survival fraction to 50% of the control) were calculated from dose-response curves and used as a measure of cellular sensitivity to a given treatment.
# (§4) The MTT [3-(4,5-dimethylthiazol-2-yl)-2,5-diphenyltetrazolium bromide; Sigma, St. Louis, MO, USA] assay determined the cytotoxicity of all the compounds, as described previously. Briefly, after 24 h or 48 h of incubation with the drug, the cells were treated with the MTT reagent, and incubation was continued for 2 h. MTT-formazan crystals were dissolved in 20% SDS and 50% DMF at pH 4.7 and absorbance was read at 570 and 650 nm on an ELISA-PLATE READER (FLUOstar Omega, BMG LABTECH GmbH, Ortenberg, Germany). As a control (100% viability), cells that were grown in the presence of medium vehicle only with 1% DMSO were used.
# cancer cell lines = assay: MTT cytotoxicity, cancer cell lines overall; assay type: cell-based, human; conditions: compared to lead compounds VIII-X
# Protocol: as §1, §2, §3, §4
# [3] = tested on: Human umbilical vein endothelial cells (HUVEC); assay: MTT cytotoxicity assay, HUVEC; assay type: cell-based
# Protocol: as §1, §2, §3, §4
# [4] = tested on: plasmid DNA (pcDNA3.1 HisC); assay: Digestion of plasmid DNA with BamHI restriction nuclease; assay type: biochemical; conditions: 100 µM, overnight 37 °C, then BamHI 3 h; agarose gel
# Excerpt: We hypothesized that a possible explanation of observed cytotoxicity might be due to an interaction of test benzofurans with genomic DNA (e.g., by intercalation). To verify this hypothesis, we investigated whether the test benzofurans have any effect on digestion of a plasmid DNA (pcDNA3.1 HisC) with endonuclease BamH1. pcDNA3.1 HisC contains a unique BamH1 restriction site which allows for plasmid linearization. Plasmid DNA exists in linear, superhelical, and circular forms that differ in electrophoretic mobility (Figure 6 lane 1). Plasmid DNA was converted to a linear form upon digestion with BamH1 (lane 2). […] In the presence of test compounds, pcDNA3.1 HisC was partially digested with Bam H1 restriction enzyme (Figure 6 lanes 4–7). Most of the plasmid DNA was converted to a linear form, however there is a circular form still present.
# 0.5 μg of plasmid DNA (pcDNAHisC, total length 5.5 kbp) containing a unique BamHI restriction site was dissolved in a 1× BamHI reaction buffer and then incubated overnight at 37 °C with the test compounds or daunorubicin, a strong intercalating agent, which was used as a positive control. The concentration of the test compounds and daunorubicin samples was 100 µM. In the next step, the reaction mixtures were digested with BamHI restriction endonuclease (2 U/μL) for 3 h at 37 °C. The total reaction volume was 10 μL. Products of the reaction were subjected to the 1% agarose gel electrophoresis in TBE buffer. The gel was stained with ethidium bromide and DNA fragments were visualized under a UV lamp (GBox, Syngene, Cambridge, UK).
# Figure 6 Digestion of pcDNA3.1HisC (total length 5.5kbp) with BamH1 endonuclease. M—marker DNA; 1—not digested plasmid DNA; 2—plasmid DNA digested with BamH1 (DNA present in linear form); 3—plasmid DNA + daunorubicin + BamH1; 4—plasmid DNA + 1c + BamH1; 5—plasmid DNA + 2d + BamH1; 6—plasmid DNA + 1e + BamH1; and, 7—plasmid DNA + 3d + BamH1.
# MOLT-4 (leukemia) cells = assay: MTT cytotoxicity assay, MOLT-4; assay type: cell-based, human
# Protocol: as §1, §2, §3, §4
# K562 (leukemia) cells = assay: MTT cytotoxicity assay, K562; assay type: cell-based, human; conditions: initial screening, 100 μM, 48 h
# Protocol: as §1, §2, §3, §4
# cancer cells = tested on: cancer cells; design: method as in PMID 25482722, PMID 30465514; conditions: previous studies; cited from earlier work
# [5] = tested on: healthy endothelial cells (HUVEC); design: method as in PMID 25482722, PMID 30465514; conditions: previous studies; cited from earlier work
# HeLa cancer cells = tested on: HeLa cancer cells; design: method as in PMID 25482722, PMID 30465514; conditions: previous studies; cited from earlier work
# K562 leukemic cell line = tested on: K562 leukemic cell line; design: method as in PMID 25482722, PMID 30465514; conditions: previous studies; cited from earlier work
# HL-60 leukemic cell line = tested on: HL-60 leukemic cell line; design: method as in PMID 25482722, PMID 30465514; conditions: previous studies; cited from earlier work
# [6] = initial screening, 100 μM, 48 h
smiles,measurement,setting,value
"COC(=O)c1c(CBr)oc2cc(C(C)=O)c(O)cc12 [Compound 2d, Methyl 6-acetyl-2-(bromomethyl)-5-hydroxybenzofuran-3-carboxylate]",increase in the activity of caspase 3/7,[1],about two-fold
same,IC50,"[2]; Homo sapiens, HeLa, 48 h incubation with cells, MTT",35 µM
same,reduction of viability of HeLa cells,[2]; [6],more than 50%
same,decrease of cytotoxicity against human cancer cells compared to the lead compounds VIII-X,cancer cell lines,5–10 folds
same,IC50,"[3]; Homo sapiens, HUVEC, 48 h incubation with cells, MTT",30 µM
same,cytotoxicity against human normal endothelial cells,[3]; [6],cytotoxic
same,inhibition of digestion of plasmid DNA with BamH1 / interaction with DNA,[4],"to some extent, interact with DNA"
same,IC50,"MOLT-4 (leukemia) cells; Homo sapiens, MOLT-4, 48 h incubation with cells, MTT",35 µM
same,reduction of viability of MOLT-4 cells,MOLT-4 (leukemia) cells; [6],more than 50%
same,reduction of viability of K562 cells,K562 (leukemia) cells,more than 50%
COC(=O)c1c(C)oc2cc(C(=O)C(Br)Br)c(O)c(Br)c12 [IX],IC50 towards cancer cells,cancer cells,in a few µM range
same,toxicity towards endothelial cells (HUVEC),[5],non-toxic
COc1cc2c(CBr)c(C(C)=O)oc2c(C(C)=O)c1OC [VIII],IC50,HeLa cancer cells,> 1000 µM
same,IC50,K562 leukemic cell line,5 µM
same,IC50,[5],> 1000 µM
same,IC50,HL-60 leukemic cell line,0.1 µM
"COC(=O)c1c(C)oc2cc(C(=O)C(Br)Br)c(OC)cc12 [X, methyl 6-(dibromoacetyl)-5-methoxy-2-methylbenzofuran-3-carboxylate]",IC50 towards cancer cells,cancer cells,in a few µM range
same,toxicity towards endothelial cells (HUVEC),[5],non-toxic
